The structures appear in SMILES notation.

Drawing on patent publication US20260265233A1, “BENZOTHIOPHENE DERIVATIVES AS RXFP1 AGONISTS” (BRISTOL-MYERS SQUIBB COMPANY, priority 2021, published 2026), this text covers EC50 for 17 compounds.

For this test, the target named is T1, human RXFP1 (Homo sapiens, UniProt Q9HBX9).
T1 construct: expressed in transfected cells
T1 sequence (Q9HBX9 1-757): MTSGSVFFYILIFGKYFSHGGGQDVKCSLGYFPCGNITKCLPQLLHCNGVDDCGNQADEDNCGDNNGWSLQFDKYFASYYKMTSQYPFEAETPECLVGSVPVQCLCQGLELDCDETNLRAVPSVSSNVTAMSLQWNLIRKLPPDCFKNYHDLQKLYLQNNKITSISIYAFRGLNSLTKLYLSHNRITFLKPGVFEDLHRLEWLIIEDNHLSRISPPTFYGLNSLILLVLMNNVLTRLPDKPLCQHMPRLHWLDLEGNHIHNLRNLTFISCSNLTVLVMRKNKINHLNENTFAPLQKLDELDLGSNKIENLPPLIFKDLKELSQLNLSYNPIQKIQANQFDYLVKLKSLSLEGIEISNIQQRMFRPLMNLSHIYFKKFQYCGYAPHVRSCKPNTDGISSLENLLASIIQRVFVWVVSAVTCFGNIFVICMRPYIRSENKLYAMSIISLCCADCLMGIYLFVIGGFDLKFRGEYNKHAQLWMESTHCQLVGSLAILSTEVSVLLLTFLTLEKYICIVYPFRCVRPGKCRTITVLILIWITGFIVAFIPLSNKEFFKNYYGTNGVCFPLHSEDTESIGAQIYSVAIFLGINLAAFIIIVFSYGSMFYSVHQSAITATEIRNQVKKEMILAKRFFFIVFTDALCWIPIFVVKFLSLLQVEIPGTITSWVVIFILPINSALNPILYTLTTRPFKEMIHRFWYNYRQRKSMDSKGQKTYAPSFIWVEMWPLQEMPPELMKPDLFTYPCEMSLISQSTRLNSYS
Put plainly: hRXFP1 HEK293 cAMP assay (HTRF). The format is cell-based. As to conditions: HEK293 cells stably expressing human RXFP1; 30 min at rt; intracellular cAMP by HTRF. The method, boiled down:
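HEK293 cells stably expressing human RXFP1 treated 30 min at rt with compound (0.010 nM to 50 μM, 2% DMSO) in HBSS/HEPES buffer with 0.5 mM IBMX. Intracellular cAMP measured by HTRF (665/590 nm ratio) against a cAMP standard curve; potency fitted by 4-parameter logistic.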
A general note: Changes in cAMP serve as a functional read-out for many G protein-coupled receptors.
For orientation: EC50 means the midpoint of the concentration-response curve. A high value points to a need for much substance. In the case of `COc1ccc(C2=NOC(CO)C2)cc1C(=O)Nc1c(C(=O)Nc2ccc(F)c(C(F)(F)F)c2)sc2cc(C(F)(F)F)ccc12` (single isomer, unassigned) [Example 249, N-(4-fluoro-3-(trifluoromethyl)phenyl)-3-(5-(5-(hydroxymethyl)-4,5-dihydroisoxazol-3-yl)-2-methoxy-benzamido)-6-(trifluoromethyl) benzo[b] thiophene-2-carboxamide], the EC50 is 3700 nM.

Compound `COc1ccc(C2=NOC(CO)C2)cc1C(=O)Nc1c(C(=O)Nc2ccc(F)c(C(F)(F)F)c2)sc2cc(C(F)(F)F)ccc12` (single isomer, unassigned) [Example 250, N-(4-fluoro-3-(trifluoromethyl)phenyl)-3-(5-(5-(hydroxymethyl)-4,5-dihydroisoxazol-3-yl)-2-methoxy-benzamido)-6-(trifluoromethyl) benzo[b] thiophene-2-carboxamide] came in with an EC50 of 280 nM. `COc1ccc(C2=NOC(C)(CO)C2)cc1C(=O)Nc1c(C(=O)Nc2ccc(F)c(C(F)(F)F)c2)sc2cc(C(F)(F)F)ccc12` (single isomer, unassigned) [Example 253, N-(4-fluoro-3-(trifluoromethyl)phenyl)-3-(5-(5-(hydroxymethyl)-5-methyl-4,5-dihydroisoxazol-3-yl)-2-methoxy-benzamido)-6-(trifluoromethyl) benzo[b] thiophene-2-carboxamide] gave an EC50 of 192 nM. Under `COc1ccc(C2=NOC(C)(CO)C2)cc1C(=O)Nc1c(C(=O)Nc2ccc(F)c(C(F)(F)F)c2)sc2cc(C(F)(F)F)ccc12` (single isomer, unassigned) [Example 254, N-(4-fluoro-3-(trifluoromethyl)phenyl)-3-(5-(5-(hydroxymethyl)-5-methyl-4,5-dihydroisoxazol-3-yl)-2-methoxy-benzamido)-6-(trifluoromethyl) benzo[b] thiophene-2-carboxamide] stands 1020 nM. The value for `COc1ccc(C2=NOC3COCC23)cc1C(=O)Nc1c(C(=O)Nc2ccc(F)c(C(F)(F)F)c2)sc2cc(C(F)(F)F)ccc12` (single isomer, unassigned) [Example 255, 3-(5-{3aH,4H,6H,6aH-furo[3,4-d][1,2]oxazol-3-yl}-2-methoxy-benzamido)-N-[4-fluoro-3-(trifluoromethyl)phenyl]-6-(trifluoromethyl)-1-benzothiophene-2-carboxamide] was 498 nM; that for `COc1ccc(C2=NOC(C(C)(C)O)C2)cc1C(=O)Nc1c(C(=O)Nc2ccc(F)c(C(F)(F)F)c2)sc2cc(C(F)(F)F)ccc12` (single isomer, unassigned) [Example 257, N-[4-fluoro-3-(trifluoromethyl)phenyl]-3-{5-[5-(2-hydroxypropan-2-yl)-4,5-dihydro-1,2-oxazol-3-yl]-2-methoxy-benzamido}-6-(trifluoromethyl)-1-benzothiophene-2-carboxamide] was 166 nM; that for `COc1ccc(C2=NOC(C(C)(C)O)C2)cc1C(=O)Nc1c(C(=O)Nc2ccc(F)c(C(F)(F)F)c2)sc2cc(C(F)(F)F)ccc12` (single isomer, unassigned) [Example 258, N-[4-fluoro-3-(trifluoromethyl)phenyl]-3-{5-[5-(2-hydroxypropan-2-yl)-4,5-dihydro-1,2-oxazol-3-yl]-2-methoxy-benzamido}-6-(trifluoromethyl)-1-benzothiophene-2-carboxamide] was 673 nM. Under `COc1ccc(C2=NOC3CC(N)CC23)cc1C(=O)Nc1c(C(=O)Nc2ccc(F)c(C(F)(F)F)c2)sc2cc(C(F)(F)F)ccc12` (single isomer, unassigned) [Example 259, 3-(5-{5-amino-3aH,4H,5H,6H, 6aH-cyclopenta[d] [1,2]oxazol-3-yl}-2-methoxy-benzamido)-N-[4-fluoro-3-(trifluoromethyl)phenyl]-6-(trifluoromethyl)-1-benzothiophene-2-carboxamide] stands 364 nM; under `COc1ccc(C2=NOC3CC(NC(=O)C(C)(C)O)CC23)cc1C(=O)Nc1c(C(=O)Nc2ccc(F)c(C(F)(F)F)c2)sc2cc(C(F)(F)F)ccc12` (single isomer, unassigned) [Example 262, N-[4-fluoro-3-(trifluoromethyl)phenyl]-3-{5-[5-(2-hydroxy-2-methyl-propanamido)-3aH,4H,5H,6H, 6aH-cyclopenta[d] [1,2]oxazol-3-yl]-2-methoxy-benzamido}-6-(trifluoromethyl)-1-benzothiophene-2-carboxamide], 723 nM; under `COc1ccc(C2=NOC3CC(NC(=O)CO)CC23)cc1C(=O)Nc1c(C(=O)Nc2ccc(F)c(C(F)(F)F)c2)sc2cc(C(F)(F)F)ccc12` (single isomer, unassigned) [Example 263, N-[4-fluoro-3-(trifluoromethyl)phenyl]-3-{5-[5-(2-hydroxyacetamido)-3aH,4H,5H,6H, 6aH-cyclopenta[d] [1,2]oxazol-3-yl]-2-methoxy-benzamido}-6-(trifluoromethyl)-1-benzothiophene-2-carboxamide], 122 nM. `COc1ccc(C2=NOC3CC(NC(=O)CO)CC23)cc1C(=O)Nc1c(C(=O)Nc2ccc(F)c(C(F)(F)F)c2)sc2cc(C(F)(F)F)ccc12` (single isomer, unassigned) [Example 264, N-[4-fluoro-3-(trifluoromethyl)phenyl]-3-{5-[5-(2-hydroxyacetamido)-3aH,4H,5H,6H, 6aH-cyclopenta[d] [1,2]oxazol-3-yl]-2-methoxy-benzamido}-6-(trifluoromethyl)-1-benzothiophene-2-carboxamide] came in with an EC50 of 3140 nM. The value for `COc1ccc(C2=NOC3CC(NC(=O)C(C)(C)O)CC23)cc1C(=O)Nc1c(C(=O)Nc2ccc(F)c(C(F)(F)F)c2)sc2cc(C(F)(F)F)ccc12` (single isomer, unassigned) [Example 265, N-[4-fluoro-3-(trifluoromethyl)phenyl]-3-{5-[5-(2-hydroxy-2-methyl-propanamido)-3aH,4H,5H,6H, 6aH-cyclopenta[d] [1,2]oxazol-3-yl]-2-methoxy-benzamido}-6-(trifluoromethyl)-1-benzothiophene-2-carboxamide] was 1140 nM; that for `COc1ccc(C2=NOC3CC(NC(=O)CO)CC23)cc1C(=O)Nc1c(C(=O)Nc2ccc(F)c(C(F)(F)F)c2)sc2cc(C(F)(F)F)ccc12` (single isomer, unassigned) [Example 266, N-[4-fluoro-3-(trifluoromethyl)phenyl]-3-{5-[5-(2-hydroxyacetamido)-3aH,4H,5H,6H, 6aH-cyclopenta[d] [1,2]oxazol-3-yl]-2-methoxy-benzamido}-6-(trifluoromethyl)-1-benzothiophene-2-carboxamide] was 2410 nM; that for `COc1ccc(C2=NOC3CC(NC(=O)C(C)(C)O)CC23)cc1C(=O)Nc1c(C(=O)Nc2ccc(F)c(C(F)(F)F)c2)sc2cc(C(F)(F)F)ccc12` (single isomer, unassigned) [Example 267, N-[4-fluoro-3-(trifluoromethyl)phenyl]-3-{5-[5-(2-hydroxy-2-methyl-propanamido)-3aH,4H,5H,6H, 6aH-cyclopenta[d] [1,2]oxazol-3-yl]-2-methoxy-benzamido}-6-(trifluoromethyl)-1-benzothiophene-2-carboxamide] was 3130 nM. Under `COc1ccc(C2=NOC3CC(CO)CC23)cc1C(=O)Nc1c(C(=O)Nc2ccc(F)c(C(F)(F)F)c2)sc2cc(C(F)(F)F)ccc12` (single isomer, unassigned) [Example 268, N-[4-fluoro-3-(trifluoromethyl)phenyl]-3-{5-[5-(hydroxymethyl)-3aH,4H,5H,6H, 6aH-cyclopenta[d] [1,2]oxazol-3-yl]-2-methoxy-benzamido}-6-(trifluoromethyl)-1-benzothiophene-2-carboxamide] stands 4.9 nM. The value for `COc1ccc(N2CCCC(NCC(N)=O)C2)cc1C(=O)Nc1c(C(=O)Nc2ccc(F)c(C(F)(F)F)c2)sc2cc(C(F)(F)F)ccc12` (stereo in doubt) [Example 112, (R)-3-(5-(3-((2-amino-2-oxoethyl)amino)piperidin-1-yl)-2-methoxy-benzamido)-N-(4-fluoro-3-(trifluoromethyl)phenyl)-6-(trifluoromethyl) benzo[b] thiophene-2-carboxamide] was 593 nM; that for `COc1ccc(N2CCCC(NCC(N)=O)C2)cc1C(=O)Nc1c(C(=O)Nc2ccc(F)c(C(F)(F)F)c2)sc2cc(C(F)(F)F)ccc12` (stereo in doubt) [Example 210, (S)-3-(5-(3-((2-amino-2-oxoethyl)amino)piperidin-1-yl)-2-methoxy-benzamido)-N-(4-fluoro-3-(trifluoromethyl)phenyl)-6-(trifluoromethyl) benzo[b] thiophene-2-carboxamide] was 1930 nM.
